Where a name gives a salt, the structure may show the parent alone.
System: α2-plasmin inhibitor (α2-PI)
Assay: α2-PI activity in culture medium of HepG2 cells (plasmin / S-2251 chromogenic substrate)
Type: cell-based, human
Details: 200 µg/ml of compound, serum-free medium, 3 to 4 days, culture without test compound = 100%, n=3
Procedure: It is known that human hepatic cancer-derived HepG2 cells synthesize and secrete α2-plasmin inhibitor (α2-PI). The HepG2 cells, 2 x 10^6, were inoculated on a plastic culture plate (diameter of 100 mm) made by Falcon Inc. and cultured in Eagle's minimum medium containing 10% bovine fetal serum.
Three days after, cells adhered to the bottom of the plate were washed twice with Dulbecco's phosphate buffer followed by culturing in 8 ml of serum-free Eagle's medium (containing no Phenol Red) containing 200 µg/ml of a specimen of the compound of the present invention for further 3 to 4 days. […]
To 100 µl of the concentrated sample, 50 µl of 15 mCU plasmin solution was added and further 50 µl of 0.25 µmole S-2251 synthetic chromogenic substrate solution was added thereto followed by reacting at 37°C for 10 minutes. By adding 1 ml of 2% citrate solution, the reaction was stopped. p-Nitroanilide released from the S-2251 substrate was measured at O.D. of 405 nm.
A sample in which decomposition of the S-2251 substrate was measured using the aforesaid Tris buffer instead of the concentrated sample was made a control showing 100% plasmin activity and the concentrated sample cultured without adding a test compound was made a control showing 100% α2-PI activity. […]

Molecule	α2-PI activity (%)
N-Isoprenylmoranoline [Compound No. 9]	55
Nojirimycin bisulfite [Compound No. 6]	67

System: CPAE (calf pulmonary artery endothelia)
Assay: Thrombolytic test in vitro: CPAE culture supernatant on fibrin plate, lysis circle
Type: cell-based
Details: 5 µl of 0.2 mg/ml compound solution per well of CPAE cells, 72 hours; 5 µl supernatant on fibrin plate with plasminogen, 4 hours; 4 mm or more = thrombolytic ability induced
Procedure: Thrombolytic activity-inducing ability in the established vascular endothelial cell culture system was examined using CPAE (calf pulmonary artery endothelia).
[…] cells were purchased from Dainippon Pharmaceutical Co., Ltd., Department of Laboratory Products. CPAE cells were subcultured in 10% FCS-Eagle MEM medium charged in a culture flask of 25 cm^2. From the cell suspension fractionated upon subculture, 0.1 ml was transferred into a test tube with a sterilized pipette. Then, the cell suspension was diluted to 10 fold with 0.9 ml of Trypan Blue solution and a cell count was counted with a cell counter. After diluting with 10% FCS-Eagle MEM medium so as to have a cell count of 2 x 10^5 cells/ml, 100 µl each/well, namely, 2 x 10^4 cells/well, of the dilution was dispensed in a 96 well microtiter plate (manufactured by Corning) with a micropipette. The plate was incubated at 37°C in 5% CO2.
The compound used according to the present invention was dissolved in medium in 0.2 mg/ml; the compound that was insoluble in the medium was dissolved in less than 1% of DMSO and the resulting solution was aseptically filtered through a filter; 5 µl of the solution was added to the well with a sterilized micropipette 24 hours after onset of the incubation. After culturing at 37°C for 72 hours in 5% CO2, the collected culture supernatant was provided for measurement.
The measurement was performed as follows. Plasminogen, 5 µl, was charged in a well of fibrin plate (manufactured by Kitazato institute), which was allowed to stand until diffusion was completed. After diffusion, 5 µl of the supernatant was charged and then put in a carbon dioxide gas incubator of 37°C. Four hours after, evaluation was made by formation of a transparent lysis circle by fibrinolysis.
In the case of forming a circle of 4 mm or more due to fibrinolysis, it was judged that thrombolytic ability of CPAE cells was induced.
After the fibrinolytic activity was checked over, the well was fixed with 2.5% of glutaraldehyde in a final concentration. Then, the solution was discarded and the system was washed with PBS. After washing, moisture was removed. After staining with 100 µl of 0.1% crystal violet and allowing stand for 2 to 3 minutes, the system was washed with running water. After an excess of the staining solution was washed out, moisture was removed and the dye bound to the cells was eluted by 100 µl of methanol. Using multiscanning (Titertech), measurements were performed at a wavelength of 580 nm in accordance with the ABS method and the matrix method to confirm that the cells were not injured.

Molecule	Diameter (mm) of the circle due to fibrinolysis [mm]
CC(C)=CCCC(C)=CCCC(C)=CCN1CC(O)C(O)C(O)C1CO (stereo not shown) [Compound No. 26, N-Farnesylmoranoline tosylate]	5.7
CCCCCCN1C[C@H](O)[C@@H](O)[C@H](O)[C@H]1CO [Compound No. 8, N-Hexylmoranoline tosylate]	6.3
C[N+]1(C)C[C@H](O)[C@@H](O)[C@H](O)[C@H]1CO [Compound No. 21, N,N-Dimethylmoranoline ammonium iodide]	5.6
Cc1ccc(CCCCN2C[C@H](O)[C@@H](O)[C@H](O)[C@H]2CO)cc1F [Compound No. 32, N-[4-(3-Fluoro-4-methylphenyl)butyl]moranoline]	7.5
OC[C@@H]1[C@@H](O)[C@H](O)[C@@H](O)CN1CCCc1ccccc1 [Compound No. 12, N-(3-Phenylpropyl)moranoline tosylate]	5.9
CCOC(=O)c1ccc(OCCN2C[C@H](O)[C@@H](O)[C@H](O)[C@H]2CO)cc1 [Compound No. 37, N-(p-Ethoxycarbonylphenoxyethyl)moranoline]	6.9
OCC1C(O)C(O)C(O)CN1CC=Cc1ccccc1 (stereo not shown) [Compound No. 23, N-Cinnamylmoranoline]	8.4
CCOc1ccc(C=CCN2CC(O)C(O)C(O)C2CO)cc1 (stereo not shown) [Compound No. 33, N-(p-Ethoxycinnamyl)moranoline]	7.8
OC[C@@H]1[C@@H](O)[C@H](O)[C@@H](O)CN1CCC=Cc1ccccc1 [Compound No. 28, N-(4-Phenyl-3-butenyl)moranoline tosylate]	8.3
CNC(=O)CCCCCCCCCCN1C[C@H](O)[C@@H](O)[C@H](O)[C@H]1CO [Compound No. 27, N-10-(N-Methylcarbamoyl)decylmoranoline]	8.5
OC[C@@H]1[C@@H](O)[C@H](O)[C@@H](O)CN1CC(O)COc1ccccc1 (stereo partly shown) [Compound No. 25, N-(2-Hydroxy-3-phenoxypropyl)moranoline tosylate]	4.1
OC[C@@H]1[C@@H](O)[C@H](O)[C@@H](O)CN1CCCOc1ccccc1Cl [Compound No. 30, N-(3-o-Chlorophenoxypropyl)moranoline]	7.6
CC(C)=CCC/C(C)=C/CN1C[C@H](O)[C@@H](O)[C@H](O)[C@H]1CO [Compound No. 24, N-Geranylmoranoline tosylate]	7.6
CCCCN1C[C@H](O)[C@@H](O)[C@H](O)[C@H]1CO [Compound No. 2a, N-(n-Butyl)moranoline]	7.5
CC(=CCN1C[C@H](O)[C@@H](O)[C@H](O)[C@H]1CO)c1ccc(Br)cc1 [Compound No. 31, N-(γ-Methyl-4-bromocinnamyl)moranoline]	7.9
N-Isoprenylmoranoline [Compound No. 9]	8.2
CCCCCCCCC(O)CN1C[C@H](O)[C@@H](O)[C@H](O)[C@H]1CO (stereo partly shown) [Compound No. 10, N-(2-Hydroxydecyl)moranoline tosylate]	4.5
O[C@H]1[C@H](O)[C@@H](O)CN2CC[C@H](O)[C@H]12 [Compound No. 38, Castanospermine]	6.9
COc1cccc(C(C)=CCCN2C[C@H](O)[C@@H](O)[C@H](O)[C@H]2CO)c1 [Compound No. 36, N-(4-m-Methoxyphenyl-3-pentenyl)moranoline]	7.6
CC(=CCN1C[C@H](O)[C@@H](O)[C@H](O)[C@H]1CO)c1cccc(C)c1 [Compound No. 35, N-(γ-Methyl-m-methylcimnnamyl)moranoline]	7.8
COCCOc1cccc(C(C)=CCN2C[C@H](O)[C@@H](O)[C@H](O)[C@H]2CO)c1 [Compound No. 20, N-[3-(3-Methoxyethoxyphenyl)-2-butenyl]moranoline]	8.0
CC(=Cc1ccccc1)CN1C[C@H](O)[C@@H](O)[C@H](O)[C@H]1CO [Compound No. 29, N-(3-Phenyl-2-methyl-2-propenyl)moranoline]	7.1
OC[C@@H]1[C@@H](O)[C@H](O)[C@@H](O)CN1CCCOc1ccccc1 [Compound No. 17, N-(3-Phenoxypropyl)moranoline tosylate]	7.5
OC[C@@H]1[C@@H](O)[C@H](O)[C@@H](O)CN1CCCCc1ccccc1 [Compound No. 15, N-4-Phenylbutylmoranoline tosylate]	6.3
OC[C@@H]1[C@@H](O)[C@H](O)[C@@H](O)CN1CC=Cc1ccccc1 [Compound No. 14, N-Cinnamylmoranoline hydrochloride]	5.9
CC(C)Oc1ccc(C=CCN2CC(O)C(O)C(O)C2CO)cc1 (stereo not shown) [Compound No. 34, N-(p-Isopropoxycinnamyl)moranoline]	7.6
CCN1C[C@H](O)[C@@H](O)[C@H](O)[C@H]1CO [Compound No. 22, N-Ethylmoranoline]	6.5
OC[C@@H]1[C@@H](O)[C@H](O)[C@@H](O)CN1CCC1CCCC1 [Compound No. 19, N-(2-Cyclopentylethyl)moranoline tosylate]	5.8
OC[C@@H]1[C@@H](O)[C@H](O)[C@@H](O)CN1CCCCCc1ccccc1 [Compound No. 18, N-5-(Phenylpentyl)moranoline tosylate]	6.8

System: not listed separately
Assay: Test on acute toxicity
Details: mouse, in vivo, ip
Procedure: Four (4) ddY strain male mice of 6 week age were used for each group of the test sample.
In intravenous administration, each sample was dissolved in 0.9% physiological saline and the solution was administered through the tail vein. In intraperitoneal administration, each sample was suspended in 0.5% CMC-physiological saline and 0.1 ml of the suspension per […] of mouse body weight was intraperitoneally administered. In oral administration, each sample was suspended in 0.5% CMC-physiological saline and 0.2 ml of the suspension per […] administered.
Observation was made immediately after the administration. After observation for 1 week after the administration, the mice was sacrificed with chloroform and subjected to autopsy.

Molecule	LD50 at 168 h [mg/kg]
OC[C@H]1NC[C@H](O)[C@@H](O)[C@@H]1O [Compound No. 1, Moranoline]	5000

Same assay, conditions: mouse, in vivo, iv

Molecule	LD50 at 168 h [mg/kg]
OC[C@H]1NC[C@H](O)[C@@H](O)[C@@H]1O [Compound No. 1, Moranoline]	3240

Same assay, conditions: mouse, in vivo, po

Molecule	LD50 at 168 h [mg/kg]
OC[C@H]1NC[C@H](O)[C@@H](O)[C@@H]1O [Compound No. 1, Moranoline]	7500

Reference: patent EP0319986B1, “Anti-plasmin depressant” (NIPPON SHINYAKU COMPANY, LIMITED, priority 1987, dated 1989)
